Columns and labels:
Type in all cases: physicochemical
[1] = CoQone solubilized in GG as binary mixture: dissolution and degradation; conditions: CoQone about 25% / GG about 75%
Description: (§1) The weight ratios of CoQone to CoQnol in the mixture were determined by HPLC using a modified method disclosed by Mattila (Mattila et al., 2000), which is incorporated by reference in its entirety. Samples were extracted from the mixing vessel under inert gas flush and the mixing vessel was then flushed with inert gas prior to resealing. Samples were dissolved in chloroform and then analyzed on a Waters Symmetry C18 column (5 μm, 4.6×250 mm) at about 35° C. The mobile phase (1.8 mL/min) was methanol:ethanol:2-propanol (53:25:22) with UV detection at 275 nm for CoQone and 290 nm for CoQnol. The retention times were about 5.7 min for CoQnol and about 8.8 min for CoQone, respectively. The HPLC method described herein was utilized in subsequent examples.
GG was added to an appropriately sized mixing vessel and heated to about 52° C. (±3°) while stirring. CoQone was added to the mixing vessel with GG to form a mixture. The mixture was stirred at about 52° C. (±3°) until CoQone was completely melted and solubilized in GG to attain a translucent solution. The mixing vessel was then flushed with a neutral, non-oxygenated gas until atmospheric air was displaced and the mixing vessel was sealed airtight. This mixture was then mixed for several days.

[2] = Headspace comparison of inert gases (nitrogen vs argon): total CoQ10 loss; conditions: CoQ10:AP:GG about 4:2:4, about 52° C., about 6-7 days
Description: as §1
CoQ10, AP, and GG are provided in the weight ratio of about 4:2:4. The three components were placed in a mixing vessel kept stirred at about 52° C. (±3°). The mixing vessel was flushed with a neutral, non-oxygenated gas until atmospheric air was displaced entirely by Nitrogen […] or Argon (Ar) and sealed airtight. This mixture was then stirred at elevated temperatures for about 6-7 days until the target CoQnol conversion rate was reached.

[3] = Stability of CoQ10 at elevated temperatures in CoQ:AP:GG mixture (HPLC)
Description: as §1
GG was added to an appropriately sized mixing vessel and heated to about 52° C. (±3°) while stirring. CoQone was added to the mixing vessel with GG to form a mixture. The mixture was stirred at about 52° C. (±3°) until CoQone was completely melted and solubilized in GG to attain a translucent solution. Then AP was added to the translucent solution, which was stirred until no visible dry AP was left on the surface. […] This mixture was then mixed at elevated temperature for 10 days with periodic flushing of neutral, non-oxygenated gas where the CoQnol conversion rate and the total amount of CoQ (both CoQnol and CoQone) were monitored.

[4] = Manufacture production batch (20 kg) and softgels: total CoQ loss and stability; conditions: 20 kg CoQone:AP:GG batch, argon, about 52° C., about six days
Description: A manufacture batch was run according the preparation methods set forth in Example 1 with the following modifications. The total amount of CoQone:AP:GG mixtures was 20 kg. Argon was used to flush the mixing vessel until the atmospheric air was displaced. After the mixing vessel was sealed air-tight, this mixture of CoQone:AP:GG was then stirred at about 52° C. (±2°) for about six days with periodic flushing of Argon for about every 24 hours.
The final composition in the sealed vessel was placed in a hopper for the encapsulation process in a softgel assembly line. The finished softgels were analyzed to determine that the weight percentage of CoQnol in total amount of CoQnol and CoQone is about 93%. […] Softgels are hermetically sealed and the contents within the softgels are expected to be stable for at least about 2 years.

[5] = CoQone mixed directly with AP (binary mixture) at elevated temperature: total CoQ degradation; conditions: about 75° C., about 3 days
Description: as §1
CoQone was added to an appropriately sized mixing vessel and melted at about 52° C. (±3°) while stirring. AP was added to the mixing vessel with CoQone to form a mixture. The mixture was gently stirred at about 52° C. (±3°) until no apparent dry AP was visible. The mixing vessel was then flushed with a neutral, non-oxygenated gas until atmospheric air was displaced and the mixing vessel was sealed airtight. This mixture was then mixed at elevated temperature for several days with periodic flushing of inert gas with the CoQone to CoQnol conversion rate being monitored.

COC1=C(OC)C(=O)C(C/C=C(\C)CC/C=C(\C)CC/C=C(\C)CC/C=C(\C)CC/C=C(\C)CC/C=C(\C)CC/C=C(\C)CC/C=C(\C)CC/C=C(\C)CCC=C(C)C)=C(C)C1=O [CoQ10]
dissolution of CoQ10 in GG ([1]; about 52° C.): completely dissolved
degradation of CoQ ([1]; after about 3 weeks, inert gas): nor was there any degradation
total loss of CoQ10 ([2]; argon-filled headspace): less than 0.5%
total CoQ10 loss ([2]; nitrogen-filled headspace): about 7%
loss of total CoQ10 ([3]; about 3-5 days at about 50-55° C., initial ratio CoQ:AP:GG 1:1:1): less than 5%
loss of total CoQ (both CoQone and CoQnol) ([3]; about 8-10 days at about 50-55° C., fixed initial ratio CoQ:AP:GG about 1:1:1, inert gas with periodic flushing): about 15%
loss of the total CoQ [4]: without any measurable loss
total CoQ10 degraded [5]: about 21%
